Reference: patent publication US20130210156A1, “Uniform, Functionalized, Cross-Linked Nanostructures for Monitoring pH” (priority 2010, published 2013)

Experiments:
[1] = Fluorescence emission of photonic SCKs and cross-linkers as a function of solution pH; format: physicochemical
Description: The resulting micelle solution 2 was incubated with 6.25 mol % or 12.5 mol % of the diamino-terminated pyrazine, relative to the acrylic acid residues, with the addition of EDCI, to afford SCK 3 or 4 having different amounts of fluorophores incorporated into the shells and, therefore, different degrees of cross-linking. The reaction mixture solutions were dialyzed against nanopure water for […] to remove the urea by-products and any non-attached pyrazine fluorophores. The SCK dimensions were then measured by atomic force microscopy (AFM) and transmission electron microscopy (TEM). […] Dialysis of the SCK solutions against nanopure water (ca. pH 7) for 3 days and then partitioning into six vials, each containing 5 mL of 5 mM PBS at pH 4.5, 6.1, 8.0, 9.5, or 11.0, placed the SCKs into different pH environments for analysis of the effects on the SCK hydrodynamic diameters and on the fluorophore photophysical properties.
Covalent cross-linking between the pyrazine units and the PAA shells, thereby, affords photonic SCKs for potential pH sensing. Covalent cross-linking between pyrazine and PAA shells constitutes photonic SCKs for potential biomedical applications. We expected to observe the photophysical consequences of the deprotonated PAA shell from pH 4.5 to 9.5 and those of the PpHS core from pH 9.5 to 11. In order to test our hypothesis, UV-vis and fluorescence measurements were collected on the resulting SCK solutions over the pH range of 4.5 to 11.0 to determine the pyrazine concentration, and then normalize the concentration relative to the fluorescence intensity values (See, FIG. 8). […] To observe the photophysical properties of the photonic SCKs, the data for the pyrazines within the SCK shell layers were compared between the two SCKs having different degrees of pyrazine loading and also against the pyrazine cross-linker associated physically with PAA and as a small molecule in buffered solutions.
To a 50 mL RB flask equipped with a magnetic stir bar was added a solution of micelles in nanopure H2O (15.0 mL, 0.016 mmol of carboxylic acid residues). To this solution, was added a solution of 3,6-diamino-N^2,N^5-bis(2-aminoethyl)pyrazine-2,5-dicarboxamide (0.397 mg, 1.12 μmol (6.25 mol % relative to the acrylic acid residues) for 12.5% cross-linking extent; or 0.794 mg, 2.24 μmol (12.5 mol % relative to the acrylic acid residues) for 25% cross-linking extent) in 1 mL nanopure H2O. The reaction mixture was allowed to stir for 2 h at room temperature. To this solution was added, dropwise via a syringe pump over 1 h, a solution of 1-[3′-(dimethylamino)propyl]-3-ethylcarbodiimide methiodide (EDCI, 0.849 mg, 2.86 μmol for 12.5% cross-linking extent; or 1.70 mg, 5.72 μmol for 25% cross-linking extent) in nanopure H2O (1.0 mL) and the reaction mixture was further stirred for 16 h at room temperature. Finally, the reaction mixture was transferred to pre-soaked dialysis tubing (MWCO ca. 3,500 Da) and dialyzed against nanopure water for 3 d to remove the small molecule starting materials and by-products, and afford aqueous solutions of SCK 3 and 4. SCK solutions for DLS, UV-vis, and fluorescence studies were further partitioned into six vials each containing 5 mM PBS (with 5 mM NaCl) at pH values of 4.5, 6.1, 8.0, 9.5, and 11.
Preparation of shell cross-linked nanoparticles (SCK) from micelles: Micelle solution pH was adjusted between 5 and 6. An electronic pipette was used to add 6.25 mol % or 12.5 mol % of diamine-terminated cross-linker (from stock solution with concentration 2.392 mg/mL or 6.2957 mg/mL) to the micelle solution and let stir for 3 hrs. To this reaction mixture was added dropwise, via a metering pump, a solution of 1-[3-(dimethylamino)propyl]-3-ethylcarbodiimide methiodide dissolved in nanopure water (12.5 mol % or 25.0 mol %). […]

[2] = pH-responsive UV-Vis and fluorescence emission of MCNs, SCKs and small molecule cross-linkers; format: physicochemical; settings: small molecules in buffer at the surveyed pH values (5.8 to 8.6)
Description: The UV-vis absorption spectra of MCNs were collected at room temperature using a Varian Cary 100 Bio UV-visible spectrophotometer and plastic cuvettes with 10 mm of light path. For each MCN absorption spectroscopy measurement, the corresponding buffer solution (5 mM with 5 mM of NaCl) outside the dialysis tubing was used as control.
The fluorescence spectra of MCNs were obtained at room temperature using a Varian Cary Eclipse fluorescence spectrophotometer. All fluorescence spectra from MCN solutions were measured at optical densities at the excitation wavelength. If not specially mentioned otherwise, an excitation wavelength of the observed maximum absorption peak was used. Each fluorescence spectrum was normalized with respect to the absorbed light intensity at the excitation wavelength.
To a solution of PEO45-b-PNAS105-b-PS45 MCMs (30.0 mg of block copolymer precursor, 127 μmol of NAS residues) in 60.0 mL of DMF/H2O (v:v=1:1) at room temperature, was added dropwise over 10 min, a solution of cross-linker 2 or 3 of FIG. 24 (12.7 μmol for nominal 20% of cross-linking and 31.8 μmol for nominal 50% of cross-linking, respectively) in nano-pure H2O. The reaction mixture was allowed to stir for 48 h at room temperature in the absence of light. […]

[3] = excited between 488 nm and 530 nm; cited from earlier work

Cl.Cl.NCCNC(=O)c1nc(N)c(C(=O)NCCN)nc1N [Photonic Cross-Linker Example 2, 3,6-diamino-N^2,N^5-bis(2-aminoethyl)pyrazine-2,5-dicarboxamide dihydrochloride]
change in fluorescence ([1]; as a function of increasing pH): less than 10%
Normalized percent increase in fluorescence ([1]; solution pH 4.5): 100%
Normalized percent increase in fluorescence ([1]; solution pH 6.1): 100%
Normalized percent increase in fluorescence ([1]; solution pH 8.0): 100%
Normalized percent increase in fluorescence ([1]; solution pH 9.5): 110%
Normalized percent increase in fluorescence ([1]; solution pH 11.0): 100%

Cl.Cl.NCCCOCCOCCOCCCNC(=O)c1nc(N)c(C(=O)NCCCOCCOCCOCCCN)nc1N [Photonic Cross-Linker Example 3, 3,6-diamino-N^2,N^5-bis(3-(2-(2-(3-aminopropoxy)ethoxy)ethoxy)propyl)pyrazine-2,5-dicarboxamide dihydrochloride]
decrease in fluorescence ([1]; as a function of increasing pH): ca. 30%

Cl.Cl.NCCNC(=O)c1nc(N)c(C(=O)NCCN)nc1N [cross-linker 2]
UV-Vis absorbance and fluorescence emission spectra variation [2]: no apparent UV-Vis absorbance and fluorescence emission spectra variation

Cl.Cl.NCCCOCCOCCOCCCNC(=O)c1nc(N)c(C(=O)NCCCOCCOCCOCCCN)nc1N [cross-linker 3]
UV-Vis absorbance and fluorescence emission spectra variation [2]: no apparent UV-Vis absorbance and fluorescence emission spectra variation

carboxyseminaphthofluorescein [cSNARF®-1]
I580/I640 ratio [3]: greater than thirty
